The subject of one data set is Huh-luc/neo-ET cells. The experiment in a line: XTT cell viability assay, Huh-luc/neo-ET. In kind it is cell-based. The following applies: 72 hours, read-out: HCV 1b - TC50. The protocol:
(§1) Twenty-four hours after seeding the cells, the cell culture supernatant was removed from each well and replaced with 175 μL fresh complete medium minus G418. Test compounds were evaluated at a high-test concentration of 10 μM and five serial half-logarithmic dilutions in three biological replicates. In three biological replicates, Sofosbuvir was evaluated in parallel at a high-test concentration of 1 μM and five serial half-logarithmic dilutions. Compounds were first serially diluted in DMSO to 400× of each final in-well concentration. An intermediate 8× solution was prepared in a complete medium and then added to the cells in a volume of 25 μL per well. A complete medium containing an equal percentage of DMSO (v/v) was added to vehicle-treated control cells. The final DMSO concentration was 0.25% (v/v) for all samples. The cells were incubated for an additional 72 hours at 37° C./5% CO2, then HCV replication was measured by luciferase activity and cell viability was assessed in parallel using an XTT colorimetric assay.
(§2) Huh-luc/neo-ET cell viability was measured at 72 hours after treatment using the tetrazolium dye XTT (2,3-bis(2-methoxy-4-nitro-5-sulfophenyl)-5[(phenylamino)carbonyl]-2H-tetrazolium hydroxide). Mitochondrial enzymes of metabolically active cells metabolize XTT-tetrazolium to a soluble formazan product. XTT solution was prepared fresh at 1 mg/mL in DMEM. Phenazine methosulfate (PMS) solution was prepared at 0.15 mg/mL in PBS and stored in the dark at −20° C. An XTT/PMS stock was prepared immediately before use by adding 40 μL of PMS per ml of XTT solution. Fifty microliters (50 μL) XTT/PMS were added per well, and the cells were incubated for 4 hours at 37° C. The cell culture plates were then sealed with adhesive plate sealers and shaken gently or inverted several times to mix the soluble formazan product. The formazan product was measured spectrophotometrically by absorbance at 450/650 nm on a Vmax plate reader (Molecular Devices). The raw data in Softmax Pro 5.4.2 software was imported into Microsoft Excel for further analysis. Data are presented as absorbance values (450/650 nm) or the percentage of viable cells relative to vehicle-treated control (mean+1−standard deviation, n=3 biological replicates from one independent experiment).
Background: Tetrazolium assays rely on reduction of a dye to a coloured formazan, in cell work by metabolically active cells.

The subject of another data set is MRC-5 cells. The data set is described as follows: Toxicity XTT in MRC-5 (229E cytoprotection assay). To be noted: read-out: CoV229E - TC50; MRC-5; XTT; 6 days.
A further data set has as its system HCV 1b. The experiment in a line: microbe, parasite or virus in culture. In kind it is cell-based. To be noted: for HCV 1b - percent effect: @ 10 μM.
For the next data set, the system named is Norovirus Norwalk Virus. The data set is described as follows: Norwalk virus CPE assay, HG23 (Method 6). It is filed as cell-based. From the text: The antiviral assays were cell line based and consisted in transfecting each of the viruses tested in a compatible cell line. Upon infection and after drug treatment, viral survival and cell toxicity were reported from the readout of three different assays: cytopathic effect (CPE), viral yield reduction (VYR), or immunofluorescence (IF). A breakdown of the results obtained can be found in Table 3 in which EC50 values have been converted to account for variations in FBS concentrations across assays.
Compounds were tested in an assay medium containing 2% fetal bovine serum (FBS). Test compounds were added to cells prior to infection with virus at a multiplicity of infection (MOI) sufficient to induce visible cytopathic effect (CPE). […] Additionally, the EC90 was defined as the concentration required to achieve a 1 log10 reduction in viral titer. Dose-response curves depicting viral CPE (red line) and compound cytotoxicity (purple line) were generated to support these analyses.

A short description of data set [1]: Protein binding in FBS, rapid equilibrium dialysis (RED). To be noted: 10% FBS (text/footnote). For orientation: In equilibrium dialysis free small molecules cross a membrane that holds back macromolecules.
Data set [2] in a line: XTT cell viability assay, Huh-luc/neo-ET. It is filed as cell-based. The following applies: human, Huh-luc/neo-ET cells, read-out: HCV 1b - TC50. As to the method:
as §1, §2

In another data set the test system is CoV229E. The data set is described as follows: Anti-Coronavirus 229E cytoprotection assay, MRC-5. It is filed as cell-based. To be noted: Human coronavirus 229E, MRC5, 6 days, XTT.
Data set [3] concerns MCF7 wild-type cell lines. The data set is described as follows: MCF7 growth inhibition assay (Cell Titre Glo 2.0). It is filed as cell-based. To be noted: Homo sapiens, 120 hours, read-out: MCF-7 IC50. As to the method: The growth inhibition properties of inhibitors on MCF7 wild-type cell lines were evaluated using the Cell Titre Glo 2.0 cell viability reagent. The assay utilized 384-well black clear bottom plates with 20 μl of MCF7 wild-type cell suspension mixed with reference/test compounds and 20 μl of Cell Titre Glo 2.0 reagent. Cells were seeded at a density of 1000 cells/well in DMEM High Glucose culture media+10% Fetal Bovine Serum (FBS). Staurosporine and Camptothecin served as positive controls for confirming cytotoxicity at a concentration of 30 μM, and vehicle control of 1% DMSO was used to standardize conditions across all test points. The assay and culture media both contained 1% DMSO. […] The incubation period for the assay was set at 120 hours, after which growth inhibition was assessed. Using a multi-mode reader, the assay readout was based on luminescence measured in Relative Light Units (RLUs). The viability luminescence signal was monitored continually from the same wells over an extended period, allowing for detailed analysis of cell viability. […]
Cells were maintained and seeded in 384 […] plates, maintaining 1000 cells/well. […] This was followed by the addition of CTG reagent as per the kit's instruction protocol for 30 minutes and RLU data to be recorded. Post plate read data to be analyzed using GraphPad Prism for software IC50 value generation. […]

A short description of data set [4]: Toxicity XTT in MRC-5 (229E cytoprotection assay). The following applies: human.

pEC50, pIC50: −log10 of the molar value.

For the molecule `O=C(O)c1ccc(-c2c(CC3CCCC3)c3ccc(F)cc3n2Cc2ccc(OCCN3CCCCC3)cc2)cc1` [MCAA-02], the CC50 was greater than 10 µM in the data set on Huh-luc/neo-ET cells and greater than 5 µM in the data set with MRC-5 cells.

Turning to `Nc1cccc2c1nc(-c1ccc(F)cc1)n2Cc1ccc(OCCN2CCCCC2)cc1` [MCAA-10], the CC50 with Huh-luc/neo-ET cells was greater than 10 µM; with MRC-5 cells, greater than 5 µM.

On to `Cc1c(-c2ccc(O)cc2)n(Cc2ccc(OCCC3CCCCC3)cc2)c2ccc(O)cc12` [MCAA-04], for which the CC50 was greater than 10 µM in the data set on Huh-luc/neo-ET cells and 2.7 µM in the data set with MRC-5 cells.

For `O=[N+]([O-])c1cccc2c1nc(-c1ccc(F)cc1)n2Cc1ccc(OCCC2CCCCC2)cc1` [MCAA-15], in the data set with HCV 1b, the “HCV 1b - percent effect” value is 38% @ 10 μM. In addition, the CC50 with Huh-luc/neo-ET cells was greater than 10 µM; with MRC-5 cells it was greater than 5 µM.

Take `Cc1c(-c2ccc(O)cc2)n(Cc2ccc(OCCN3CCCCC3)cc2)c2ccc(O)cc12` [Pipendoxifene]: in the data set on Norovirus Norwalk Virus (2% FBS, @ 5 μM), the “percent effect printed in EC50 column” value came out at 31% @. For the same molecule, in the data set on Norovirus Norwalk Virus (@ 1.25 μM (concentration corrected for 2% FBS)), the “percent effect printed in Corrected EC50 column” value is 31% @ 1.25. In the data set with MRC-5 cells, the CC50 was greater than 1 µM. Further, the unbound fraction in data set [1] amounted to 5%.

For the molecule `Nc1cccc2nc(-c3ccc(F)cc3)n(Cc3ccc(OCCN4CCCCC4)cc3)c12` [MCAA-08], the CC50 is greater than 10 µM in the data set on Huh-luc/neo-ET cells and greater than 5 µM in the data set on MRC-5 cells.

Take `CC(C)OC(=O)[C@H](C)N[P@](=O)(OC[C@H]1O[C@@H](n2ccc(=O)[nH]c2=O)[C@](C)(F)[C@@H]1O)Oc1ccccc1` [Sofosbuvir, reference compound]: the CC50 with Huh-luc/neo-ET cells was greater than 1 µM.

On to `Fc1ccc(-c2cc3sccc3n2Cc2ccc(OCCC3CCCCC3)cc2)cc1` [MCAA-07], for which the “HCV 1b - percent effect” value in the data set with HCV 1b amounted to 30% @ 10 μM. The CC50 in the data set with Huh-luc/neo-ET cells was greater than 10 µM; in the data set with MRC-5 cells, greater than 5 µM.

For `Nc1cccc2nc(-c3ccc(F)cc3)n(Cc3ccc(OCCC4CCCCC4)cc3)c12` [MCAA-09], the CC50 in the data set on Huh-luc/neo-ET cells was greater than 10 µM; in the data set on MRC-5 cells it was greater than 5 µM.

For the molecule `O=C(O)c1ccc(-c2c(CC3CCCC3)c3ccc(F)cc3n2Cc2ccc(OCCC3CCCCC3)cc2)cc1` [MCAA-03], the figures for the CC50 with Huh-luc/neo-ET cells and in the data set with MRC-5 cells were greater than 10 µM and 2.47 µM, respectively.

Regarding `O=[N+]([O-])c1cccc2nc(-c3ccc(F)cc3)n(Cc3ccc(OCCC4CCCCC4)cc3)c12` [MCAA-14], the “HCV 1b - percent effect” value with HCV 1b came to 34% @ 10 μM. The CC50 with Huh-luc/neo-ET cells is greater than 10 µM; with MRC-5 cells, greater than 5 µM.

`O=[N+]([O-])c1cccc2nc(-c3ccc(F)cc3)n(Cc3ccc(OCCN4CCCCC4)cc3)c12` [MCAA-12]: the results for the CC50 in the data set with Huh-luc/neo-ET cells and in the data set on MRC-5 cells were greater than 10 µM and greater than 5 µM, respectively.

For `COc1ccc(-c2c(Cc3ccc(OCCC4CCCCC4)cc3)c3ccc(OC)cc3n2C)cc1` [MCAA-05], the results for the CC50 in the data set on Huh-luc/neo-ET cells and in the data set on MRC-5 cells were greater than 10 µM and greater than 5 µM, respectively.

Turning to `Nc1cccc2c1nc(-c1ccc(F)cc1)n2Cc1ccc(OCCC2CCCCC2)cc1` [MCAA-11], the CC50 was 5.82 µM in the data set on Huh-luc/neo-ET cells and greater than 5 µM in the data set on MRC-5 cells.

Consider `Fc1ccc(-c2cc3sccc3n2Cc2ccc(OCCN3CCCCC3)cc2)cc1` [MCAA-06], for which the CC50 in the data set with Huh-luc/neo-ET cells was greater than 10 µM; with MRC-5 cells, 1.53 µM.

`O=[N+]([O-])c1cccc2c1nc(-c1ccc(F)cc1)n2Cc1ccc(OCCN2CCCCC2)cc1` [MCAA-13]: the values for the CC50 in the data set with Huh-luc/neo-ET cells and with MRC-5 cells were greater than 10 µM and greater than 5 µM, respectively.

Take `COc1ccc(-c2c(Cc3ccc(OCCN4CCCCC4)cc3)c3ccc(OC)cc3n2C)cc1` [MCAA-01]: the pEC50 (in general, the EC50 on a negative log10 scale, so that one unit is a factor of ten) with HCV 1b (Hepatitis C virus, Huh-luc/neo-ET replicon, 72 hours, luciferase) is 5.44; in the data set with CoV229E, 5.73. Also, the CC50 at 72 h in data set [2] is greater than 10 µM. Further, in [3], the pIC50 – broadly, the negative decadic logarithm of the IC50, by convention in mol/L – was less than 5.00. In addition, the CC50 at 6 days in data set [4] was greater than 5 µM.

As to `CCC(CC)COC(=O)[C@H](C)N[P@](=O)(OC[C@H]1O[C@@](C#N)(c2ccc3c(N)ncnn23)[C@H](O)[C@@H]1O)Oc1ccccc1` [Remdesivir, reference compound], the CC50 in the data set on MRC-5 cells is greater than 1 µM.
